# Key:
# MT-4 cells = assay: Cytotoxicity with respect to non-infected MT-4 cells (MTT method); format: cell-based; conditions: 5 days; for CC50 (50% cytotoxic concentration): 37° C., MTT method
# Procedure: (§1) Evaluation method: Test substances having various concentrations were placed in a 96-well microtiter plate along with HIV-infected MT-4 cells (2.5×10^4 /well, MOI: 0.01) immediately after the infection thereof. In order to ascertain the cytotoxicity of the test substance with respect to the MT-4 cells, non-infected cells were cultured in an identical manner along with the test substances of various concentrations. After culturing for 5 days at a temperature of 37° C. in a CO2 incubator, the number of living cells was determined using the MTT method. The antiviral activity is shown in terms of the concentration which prevented 50% of the cytopathogenic effects of the HIV virus (EC50 : 50% effective concentration) and the cytotoxicity is shown in terms of the concentration at which the cytotoxicity of the test substance reaches 50% (CC50 : 50% cytotoxic concentration).Furthermore, the selectivity index (S.I.) is calculated as CC50 /EC50.
# (§2) (Reference: Pauwels, et al., J. Viral Methods, 20 (1988) 309-321). Using this method, the compounds of Examples 30-43 were tested for anti-HIV activity. The compounds shown in Table 2 (Examples 35~38) are produced by means of novel sulfation methods. For the purposes of comparison, the conventional anti-AIDS agents AZT (3'-azido-2',3'-dideoxythymidine) and dextran sulfate were also tested, and the results thereof are appended as comparative data.
# HIV = assay: Anti-AIDS (HIV) activity in HIV-infected MT-4 cells (MTT method); format: cell-based; conditions: for EC50 (50% effective concentration, prevention of 50% of cytopathogenic effects of HIV): 37° C., MTT method
# Procedure: as §1, §2
# [1] = HIV-infected MT-4 cells, MOI 0.01, 5 days
Compound,"CC50 (MT-4 cells; AZT, footnote: units are μM, read-out: CC50 (50% cytotoxic concentration)) [µM]","SI (selectivity index, CC50/EC50) (HIV; CC50/EC50, MT-4 cells, HIV)","EC50 (HIV; Human immunodeficiency virus 1, MT4, 120 h, AZT, footnote: units are μM, HIV-infected MT-4 cells, MOI 0.01, 5 days, read-out: EC50 (50% effective concentration)) [µM]",CC50 (50% cytotoxic concentration) (MT-4 cells) [µg/mL],"EC50 (50% effective concentration, prevention of 50% of cytopathogenic effects of HIV) (HIV; [1]) [µg/mL]"
"Cc1cn([C@H]2C[C@H](N=[N+]=[N-])[C@@H](CO)O2)c(=O)[nH]c1=O [AZT, 3'-azido-2',3'-dideoxythymidine, reference compound]",10.8,2700,0.004,–,–
octyloxyphenyl β-D-galactopyranosyl-(1→4)-{β-D-galactopyranosyl-(1→4)}2 -β-D-glucopyranoside sulfate [Example 40],–,–,–,> 1000,0.95
p-octylphenyl β-D-glucopyranosyl-(1→3)-{β-D-glucopyranosyl (1→3)}5 -β-D-glucopyranoside sulfate [Example 34],–,–,–,> 1000,0.31
p-heptyloxyphenyl β-D-glucopyranosyl-(1→3)-{β-D-glucopyranosyl-(1→3)}3 -β-D-glucopyranoside sulfate [Example 33],–,–,–,> 1000,0.77
p-octylphenyl β-D-glucopyranosyl-(1→3)-{β-D-glucopyranosyl (1→3)}3 -β-D-glucopyranoside sulfate [Example 37],–,–,–,> 1000,0.080
p-pentylphenyl β-D-glucopyranosyl-(1→3)-{β-D-glucopyranosyl (1→3)}3 -β-D-glucopyranoside sulfate [Example 31],–,–,–,> 1000,0.75
octylphenyl β-D-galactopyranosyl-(1→4)-{β-D-galactopyranosyl-(1→4)}2 -β-D-glucopyranoside sulfate [Example 39],–,–,–,> 1000,0.82
"p-(1,1,3,3-tetramethylbutyl)phenyl β-D-glucopyranosyl-(1→3)-{β-D-glucopyranosyl-(1→3)}m -β-D-glucopyranoside sulfate [Example 38]",–,–,–,> 1000,0.020
"p-(1,1,3,3-tetramethylbutyl)phenyl β-D-galactopyranosyl-(1→4)-{β-D-galactopyranosyl-(1→4)}2 -β-D-glucopyranoside sulfate [Example 43]",–,–,–,> 1000,0.04
p-octylphenyl β-D-glucopyranosyl-(1→3)-{β-D-glucopyranosyl (1→3)}3 -β-D-glucopyranoside sulfate [Example 30],–,–,–,> 1000,0.62
dextran sulfate [reference compound],–,–,–,> 1000,0.50
octyloxyphenyl β-D-galactopyranosyl-(1→4)-β-D-galactopyranosyl-(1→4)-β-D-glucopyranoside sulfate [Example 41],–,–,–,> 1000,1.12
p-heptyloxyphenyl β-D-glucopyranosyl-(1→3)-{β-D-glucopyranosyl (1→3)}3 -β-D-glucopyranoside sulfate [Example 36],–,–,–,> 1000,0.062
heptyloxyphenyl β-D-galactopyranosyl-(1→4)-{β-D-galactopyranosyl-(1→4)}2 -β-D-glucopyranoside sulfate [Example 42],–,–,–,> 1000,0.23
"p-(1,1,3,3-tetramethylbutyl)phenyl β-D-glucopyranosyl-(1→3)-{β-D-glucopyranosyl-(1→3)}3 -β-D-glucopyranoside sulfate [Example 35]",–,–,–,> 1000,0.038
sulfated p-heptyloxyphenyl β-D-glucopyranosyl-(1→3)-{β-D-glucopyranosyl-(1→3)}3 -β-D-glucopyranoside [Example 32],–,–,–,> 1000,0.72
